Consider 37 molecules from US20260048060A1, “POLYCYCLIC THYROID HORMONE b RECEPTOR AGONIST AND USE THEREOF” (CASCADE PHARMACEUTICALS, INC., priority 2022, published 2026).

For this experiment, the target named is T1, THRβ (Homo sapiens, UniProt P10828).
T1 construct: expressed in transfected cells; host or cells: HEK293T
T1 sequence (P10828 217-461): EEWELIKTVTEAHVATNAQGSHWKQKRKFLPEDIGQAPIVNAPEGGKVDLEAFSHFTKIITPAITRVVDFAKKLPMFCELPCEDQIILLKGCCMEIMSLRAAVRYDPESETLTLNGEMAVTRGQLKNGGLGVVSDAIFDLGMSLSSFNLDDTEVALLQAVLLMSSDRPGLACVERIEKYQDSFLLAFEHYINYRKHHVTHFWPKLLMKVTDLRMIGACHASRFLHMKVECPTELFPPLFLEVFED
The experiment is described as follows: Reporter gene (GAL4-THRβ-LBD / Dual-Glo luciferase) agonist activity assay in HEK293T cells. It is filed as cell-based. Conditions: ratio of reporter gene EC50 values THRα/THRβ. The source says:
Experimental Example 1: Detection of THRα and THRβ Agonist Activities of Compounds Based on Reporter Gene Activity Assay Method
1.1 Construction and Preparation of Plasmids pGAL4-THR-LBD and pG5-Luc
The pGAL4-THRα-LBD and pGAL4-THRβ-LBD plasmids used in the reporter gene assay system were constructed by a conventional molecular cloning method comprising the following main steps: the cDNA sequences of THRα (NM_003250) and THRβ (NM_000461) corresponding to the amino acid sequences of THRα (163-407AA) and THRβ (217-461AA) were inserted into the BamHI and NotI enzyme digestion sites of the pGAL4 vector by the PCR technique respectively to obtain the pGAL4-THRα-LBD and pGAL4-THRβ-LBD plasmids; the pG5-Luc (#E249A) and pRL-TK (#E2241) plasmids were purchased from Promega; the plasmids were transfected into the E. coli DH5α by the CaCl2 method, and after further culture and amplification, the plasmids were purified by Plasmid Extraction Kits (TIANGEN, #D107) to obtain the corresponding plasmid DNAs.
1.2 Co-Transfection of Plasmids into HEK293T Cells and Treatment with Compounds
The HEK293T cells were inoculated into a 96-well plate at a density of 1×10^4/well the day before plasmid transfection. Cell transfection was conducted according to the instructions of the transfection reagent FuGENE® HD (Promega, #E2311). The main steps were as follows: taking one well as an example here, the plasmids pGAL4-THRα-LBD or pGAL4-THRβ-LBD, pG5-Luc, and pRL-TK were added in the proportions of 20 ng, 50 ng, and 5 ng to 10 μL of Opti-MEM™ I medium (Gibco, #11058021) and mixed well; subsequently, 0.25 uL of FuGENE® HD was added, mixed well, and then left at room temperature for 5 min; afterwards, 10 μL of the mixture was added to the cell wells containing 100 μL of culture medium. After cell co-transfection for 6 h, the compound was diluted in a 3-fold gradient with dimethyl sulfoxide at the highest concentration of 1 uM. The compound was added to the cell culture medium at a total of 10 concentrations for treatment for 24 h. There were a total of two duplicate wells for each concentration. Triiodothyronine (T3) was used as the positive control.
1.3 Dual-Glo Luciferase Assay
After the cells were treated with the compound for 24 h, the cells were assayed according to the instructions of Dual-Glo® Luciferase Assay System (Promega, #E2940). The main steps were as follows: 50 μL of culture medium was aspirated from each well and discarded, and then 50 μL of Dual-Glo® Luciferase reagent was added and oscillated at room temperature for 10 min; 80 μL of lysis reaction solution was measured into a white opaque optiPlate-96-well plate, and the luminescence signal value (Firefly-Luc) of the Firefly luciferase was detected using an MD i3x multi-mode microplate reader; 40 μL of Dual-Glo® Stop & Glo® reagent was then added, and oscillated at room temperature for 10 min; the luminescence signal value (Renilla-Luc) of the Renilla luciferase was then detected using an MD i3x multi-mode microplate reader. The Firefly-Luc/Renilla-Luc ratio was used as the activation activity of the compound against THR, and the ratio in the solvent DMSO group was used for normalization; the dose-response curve was fitted with four parameters using the GraphPad Prism6.0 software, and the EC50 value was calculated.

On to `CNC(=O)c1ccccc1OCc1c(Br)cc(-n2nc(C(F)F)c(=O)[nH]c2=O)cc1Br` [Compound 56], for which the “Selectivity (THRα/THRβ)” value is “†† (††: 10 ≥ THRα/β > 5;)”.

For the molecule `CNC(=O)c1cscc1OCc1c(Cl)cc(-n2nc(C(F)F)c(=O)[nH]c2=O)cc1Cl` [Compound 62], the “Selectivity (THRα/THRβ)” value is listed as “†† (††: 10 ≥ THRα/β > 5;)”.

Regarding `CNC(=O)c1ccccc1OCc1c(Cl)cc(-n2nc(C(F)F)c(=O)[nH]c2=O)cc1Br` [Compound 105], the “Selectivity (THRα/THRβ)” value is listed as “† (†: 5 ≥ THRα/β;)”.

Turning to `CNC(=O)c1cscc1OCc1c(Cl)cc(-n2ncc(=O)[nH]c2=O)cc1Cl` [Compound 46], the “Selectivity (THRα/THRβ)” value is given as “† (†: 5 ≥ THRα/β;)”.

As for `CNC(=O)c1ccccc1OCc1c(Cl)cc(-n2nc(C)c(=O)[nH]c2=O)cc1Cl` [Compound 51], the “Selectivity (THRα/THRβ)” value is reported as “† (†: 5 ≥ THRα/β;)”.

As for `NC(=O)c1cc(Br)ccc1OCc1c(Cl)cc(-n2ncc(=O)[nH]c2=O)cc1Cl` [Compound 64], the “Selectivity (THRα/THRβ)” value was “† (†: 5 ≥ THRα/β;)”.

On to `[2H]C([2H])([2H])NC(=O)c1ccccc1OCc1c(Cl)cc(-n2nc(C(F)F)c(=O)[nH]c2=O)cc1Cl` [Compound 104], for which the “Selectivity (THRα/THRβ)” value is recorded as “†† (††: 10 ≥ THRα/β > 5;)”.

Take `CNC(=O)c1ccccc1OCc1c(Cl)cc(-n2nc(C(F)(F)F)c(=O)[nH]c2=O)cc1Cl` [Compound 52]: the “Selectivity (THRα/THRβ)” value is “† (†: 5 ≥ THRα/β;)”.

On to `NC(=O)c1cc(C2CC2)ccc1OCc1c(Cl)cc(-n2ncc(=O)[nH]c2=O)cc1Cl` [Compound 82], for which the “Selectivity (THRα/THRβ)” value is reported as “†† (††: 10 ≥ THRα/β > 5;)”.

In the case of `Cc1ccc(OCc2c(Cl)cc(-n3nc(C(F)F)c(=O)[nH]c3=O)cc2Cl)c(C(N)=O)c1` [Compound 86], the “Selectivity (THRα/THRβ)” value is given as “†† (††: 10 ≥ THRα/β > 5;)”.

Turning to `CNC(=O)c1ccc(OCc2c(Cl)cc(-n3ncc(=O)[nH]c3=O)cc2Cl)cc1` [Compound 76], the “Selectivity (THRα/THRβ)” value is reported as “† (†: 5 ≥ THRα/β;)”.

On to `NC(=O)c1cc(-n2cccc2)ccc1OCc1c(Cl)cc(-n2ncc(=O)[nH]c2=O)cc1Cl` [Compound 70], for which the “Selectivity (THRα/THRβ)” value is listed as “†† (††: 10 ≥ THRα/β > 5;)”.

As to `CCNC(=O)c1ccccc1OCc1c(Cl)cc(-n2ncc(=O)[nH]c2=O)cc1Cl` [Compound 43], the “Selectivity (THRα/THRβ)” value was “† (†: 5 ≥ THRα/β;)”.

As to `Cc1ccc(OCc2c(Br)cc(-n3nc(C(F)F)c(=O)[nH]c3=O)cc2Br)c(C(N)=O)c1` [Compound 87], the “Selectivity (THRα/THRβ)” value was “† (†: 5 ≥ THRα/β;)”.

With `NC(=O)c1cc(C2CCCC2)ccc1OCc1c(Cl)cc(-n2ncc(=O)[nH]c2=O)cc1Cl` [Compound 102], the “Selectivity (THRα/THRβ)” value was “†† (††: 10 ≥ THRα/β > 5;)”.

On to `NC(=O)c1cc(C2=CCCCC2)ccc1OCc1c(Cl)cc(-n2ncc(=O)[nH]c2=O)cc1Cl` [Compound 99], for which the “Selectivity (THRα/THRβ)” value is “†††† (††††: 100 ≥ THRα/β > 20)”.

Turning to `CNC(=O)c1ccccc1OCc1c(C)cc(-n2ncc(=O)[nH]c2=O)cc1Cl` [Compound 61], the “Selectivity (THRα/THRβ)” value was “† (†: 5 ≥ THRα/β;)”.

Regarding `[2H]C([2H])(Oc1ccccc1C(=O)NC)c1c(Cl)cc(-n2nc(C(F)F)c(=O)[nH]c2=O)cc1Cl` [Compound 103], the “Selectivity (THRα/THRβ)” value was “† (†: 5 ≥ THRα/β;)”.

With `CNC(=O)c1ccccc1OCc1c(Cl)cc(-c2nn(C(F)F)c(=O)[nH]c2=O)cc1Cl` [Compound 60], the “Selectivity (THRα/THRβ)” value is given as “† (†: 5 ≥ THRα/β;)”.

With `CNC(=O)c1sccc1OCc1c(Cl)cc(-n2ncc(=O)[nH]c2=O)cc1Cl` [Compound 47], the “Selectivity (THRα/THRβ)” value was “† (†: 5 ≥ THRα/β;)”.

As to `CNC(=O)c1sccc1OCc1c(Cl)cc(-n2nc(C(F)F)c(=O)[nH]c2=O)cc1Cl` [Compound 63], the “Selectivity (THRα/THRβ)” value is on record as “† (†: 5 ≥ THRα/β;)”.

Consider `CNC(=O)c1ccccc1OCc1c(Cl)cc(-n2nc(CF)c(=O)[nH]c2=O)cc1Cl` [Compound 93], for which the “Selectivity (THRα/THRβ)” value was “† (†: 5 ≥ THRα/β;)”.

For the molecule `Cc1ccc(OCc2c(Br)cc(-n3ncc(=O)[nH]c3=O)cc2Br)c(C(N)=O)c1` [Compound 83], the “Selectivity (THRα/THRβ)” value is given as “†††† (††††: 100 ≥ THRα/β > 20)”.

For the molecule `NC(=O)c1cc(C2=CCCC2)ccc1OCc1c(Cl)cc(-n2ncc(=O)[nH]c2=O)cc1Cl` [Compound 101], the “Selectivity (THRα/THRβ)” value is given as “† (†: 5 ≥ THRα/β;)”.

`NC(=O)c1cc(C2CCCCC2)ccc1OCc1c(Cl)cc(-n2ncc(=O)[nH]c2=O)cc1Cl` [Compound 100]: the “Selectivity (THRα/THRβ)” value is “†††† (††††: 100 ≥ THRα/β > 20)”.

Turning to `CNC(=O)c1cc(C)ccc1OCc1c(Cl)cc(-n2ncc(=O)[nH]c2=O)cc1Cl` [Compound 84], the “Selectivity (THRα/THRβ)” value is given as “† (†: 5 ≥ THRα/β;)”.

Consider `CNC(=O)c1ccccc1OCc1c(Cl)cc(-c2nn(C)c(=O)[nH]c2=O)cc1Cl` [Compound 59], for which the “Selectivity (THRα/THRβ)” value is reported as “† (†: 5 ≥ THRα/β;)”.

Regarding `CNC(=O)c1cc(C)ccc1OCc1c(Br)cc(-n2nc(C(F)F)c(=O)[nH]c2=O)cc1Br` [Compound 89], the “Selectivity (THRα/THRβ)” value was “† (†: 5 ≥ THRα/β;)”.

Regarding `Cc1ccc(OCc2c(Cl)cc(-n3ncc(=O)[nH]c3=O)cc2Cl)c(C(N)=O)c1` [Compound 68], the “Selectivity (THRα/THRβ)” value is reported as “† (†: 5 ≥ THRα/β;)”.

Regarding `CNC(=O)c1cc(C)ccc1OCc1c(Cl)cc(-n2nc(C(F)F)c(=O)[nH]c2=O)cc1Cl` [Compound 88], the “Selectivity (THRα/THRβ)” value was “† (†: 5 ≥ THRα/β;)”.

On to `CNC(=O)c1cc(C)ccc1OCc1c(Br)cc(-n2ncc(=O)[nH]c2=O)cc1Br` [Compound 85], for which the “Selectivity (THRα/THRβ)” value is “†††† (††††: 100 ≥ THRα/β > 20)”.

As to `NC(=O)c1ccccc1OCc1c(Br)cc(-n2nc(C(F)F)c(=O)[nH]c2=O)cc1Br` [Compound 57], the “Selectivity (THRα/THRβ)” value is reported as “† (†: 5 ≥ THRα/β;)”.

Regarding `CNC(=O)c1sccc1OCc1c(Br)cc(-n2nc(C(F)F)c(=O)[nH]c2=O)cc1Br` [Compound 90], the “Selectivity (THRα/THRβ)” value is “††† (†††: 20 ≥ THRα/β > 10;)”.

For `CNC(=O)c1ccccc1OCc1c(Br)cc(-n2ncc(=O)[nH]c2=O)cc1Br` [Compound 39], the “Selectivity (THRα/THRβ)” value was “† (†: 5 ≥ THRα/β;)”.

`NC(=O)c1cc(Cl)ccc1OCc1c(Cl)cc(-n2ncc(=O)[nH]c2=O)cc1Cl` [Compound 32]: the “Selectivity (THRα/THRβ)” value is “† (†: 5 ≥ THRα/β;)”.

Turning to `NC(=O)c1cc(F)ccc1OCc1c(Cl)cc(-n2ncc(=O)[nH]c2=O)cc1Cl` [Compound 37], the “Selectivity (THRα/THRβ)” value is “† (†: 5 ≥ THRα/β;)”.

With `CNC(=O)c1cscc1OCc1c(Br)cc(-n2nc(C(F)F)c(=O)[nH]c2=O)cc1Br` [Compound 91], the “Selectivity (THRα/THRβ)” value is listed as “††† (†††: 20 ≥ THRα/β > 10;)”.
